Legend:
[1] = Highest frequency of moderate liver toxicity observed during clinical trials, expressed as a percentage. [column '% BIOL' in source]; settings: human
[2] = Highest frequency of acute liver toxicity observed during clinical trials, expressed as a percentage. [column '% AIGUE' in source]; settings: human
[3] = Presence of at least one case with successful reintroduction. [column 'REINT' in source]; settings: human
[4] = Times to onset, minimal and maximal, observed in the indexed observations. [column 'DELAI' in source]; settings: human
[5] = human, serum
[6] = human, serum; remark: listed apart in the source
[7] = human
[8] = human; remark: listed apart in the source
[9] = human; remark: listed apart in the source
[10] = human, serum, 4383 h
[11] = human; remark: listed apart in the source
[12] = human; remark: listed apart in the source
[13] = human; remark: listed apart in the source
[14] = human; remark: listed apart in the source
[15] = human; remark: listed apart in the source
[16] = human; remark: listed apart in the source
[17] = human; remark: listed apart in the source
[18] = Comments (NB not yet translated). [column 'COMMENTAIRES' in source]; settings: human
[19] = Proposed mechanism(s) of liver damage. [column 'MEC' in source]; settings: human
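For Hepatotoxicity (association with vascular disease) in this document: count of indexed literature references reporting vascular liver injury in humans, e.g. peliosis hepatitis, hepatic veno-occlusive disease or Budd-Chiari syndrome.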
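For Hepatotoxicity (benign tumour) in this document: value is a count of indexed literature references citing a benign tumour confirmed by histopathology.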
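For Hepatotoxicity (choleostasis) in this document: human cholestatic liver injury, shown by histopathology or by peak ALT or AST elevation over alkaline phosphatase ratio below 2, value counts indexed literature reports.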
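For Hepatotoxicity (chronic liver disease) in this document: chronic liver injury confirmed by histopathology or persistently raised serum aminotransferase activity beyond 6 months, value given as the count of indexed literature references.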
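For Hepatotoxicity (cirrhosis) in this document: value is a count of indexed literature references reporting cirrhosis confirmed by histopathology.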
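For Hepatotoxicity (cytolytic) in this document: human cytolytic liver injury, shown by histopathology or by a ratio above 5 of peak ALT or AST elevation to alkaline phosphatase elevation, value counts indexed references.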
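For Hepatotoxicity (granulomatous hepatitis) in this document: value is a count of indexed literature references reporting granulomatous liver disease confirmed by histopathology.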
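For Hepatotoxicity (malignant tumour) in this document: malignant tumour confirmed by histopathology, value gives the count of indexed literature references reporting it.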
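For Hepatotoxicity (severe hepatitis) in this document: human clinical data: severe hepatitis, meaning potentially life-threatening liver failure or clinically observed cases, the value counts how many indexed literature references report it.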
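For Hepatotoxicity (steatosis) in this document: steatosis confirmed by histopathology, value is the count of indexed references.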

C[C@H]1O[C@H](O[C@H]2[C@H](O)[C@@H](O)[C@@H](O[C@H]3[C@H](O)[C@@H](O)C(O)O[C@@H]3CO)O[C@@H]2CO)[C@H](O)[C@@H](O)[C@@H]1N[C@H]1C=C(CO)[C@@H](O)[C@H](O)[C@H]1O (stereo not given in full) [ACARBOSE]
Hepatotoxicity (moderate) [1]: 9.9%
Hepatotoxicity (acute) [2]: 0%
Hepatotoxicity (successful reintroduction) [3]: yes
Hepatotoxicity (time to onset) [4]: 1 week - 1.5 years
Hepatotoxicity (moderate) [5]: 6
Hepatotoxicity (acute) [6]: 7
Hepatotoxicity (cytolytic) [7]: 6
Hepatotoxicity (choleostasis) [8]: 0
Hepatotoxicity (severe hepatitis) [9]: 0
Hepatotoxicity (chronic liver disease) [10]: 0
Hepatotoxicity (cirrhosis) [11]: 0
Hepatotoxicity (granulomatous hepatitis) [12]: 0
Hepatotoxicity (association with vascular disease) [13]: 0
Hepatotoxicity (steatosis) [14]: 0
Hepatotoxicity (malignant tumour) [15]: 0
Hepatotoxicity (benign tumour) [16]: 0
Hepatotoxicity (animal toxicity known) [17]: yes

O=C1c2cccc(O)c2C(=O)c2c(O)cccc21 [DANTHRON]
Hepatotoxicity (moderate) [1]: 0%
Hepatotoxicity (acute) [2]: 0%
Hepatotoxicity (successful reintroduction) [3]: yes
Hepatotoxicity (time to onset) [4]: 2 days - 1 year
Hepatotoxicity (moderate) [5]: 1
Hepatotoxicity (acute) [6]: 0
Hepatotoxicity (cytolytic) [7]: 0
Hepatotoxicity (choleostasis) [8]: 0
Hepatotoxicity (severe hepatitis) [9]: 0
Hepatotoxicity (chronic liver disease) [10]: 1
Hepatotoxicity (cirrhosis) [11]: 0
Hepatotoxicity (granulomatous hepatitis) [12]: 0
Hepatotoxicity (association with vascular disease) [13]: 0
Hepatotoxicity (steatosis) [14]: 0
Hepatotoxicity (malignant tumour) [15]: 0
Hepatotoxicity (benign tumour) [16]: 0
Hepatotoxicity (animal toxicity known) [17]: yes

COC1=CC(=O)C[C@@H](C)[C@]12Oc1c(Cl)c(OC)cc(OC)c1C2=O [GRISEOFULVIN]
Hepatotoxicity (moderate) [1]: 50%
Hepatotoxicity (acute) [2]: 2.8%
Hepatotoxicity (successful reintroduction) [3]: yes
Hepatotoxicity (time to onset) [4]: 3 days - 4.5 months
Hepatotoxicity (moderate) [5]: 9
Hepatotoxicity (acute) [6]: 5
Hepatotoxicity (cytolytic) [7]: 1
Hepatotoxicity (choleostasis) [8]: 2
Hepatotoxicity (severe hepatitis) [9]: 0
Hepatotoxicity (chronic liver disease) [10]: 0
Hepatotoxicity (cirrhosis) [11]: 0
Hepatotoxicity (granulomatous hepatitis) [12]: 0
Hepatotoxicity (association with vascular disease) [13]: 0
Hepatotoxicity (steatosis) [14]: 0
Hepatotoxicity (malignant tumour) [15]: 0
Hepatotoxicity (benign tumour) [16]: 0
Hepatotoxicity (animal toxicity known) [17]: yes

CN(C/C=C/C#CC(C)(C)C)Cc1cccc2ccccc12 [TERBINAFINE]
Hepatotoxicity (moderate) [1]: 36.7%
Hepatotoxicity (acute) [2]: 0%
Hepatotoxicity (comment) [18]: CHOLANGITE DUCTOPENIE CHOLESTASE_PROLONGEE
Hepatotoxicity (time to onset) [4]: 1 week - 6 months
Hepatotoxicity (mechanism) [19]: Reactive metabolite
Hepatotoxicity (moderate) [5]: 21
Hepatotoxicity (acute) [6]: 23
Hepatotoxicity (cytolytic) [7]: 7
Hepatotoxicity (choleostasis) [8]: 15
Hepatotoxicity (severe hepatitis) [9]: 3
Hepatotoxicity (chronic liver disease) [10]: 1
Hepatotoxicity (cirrhosis) [11]: 0
Hepatotoxicity (granulomatous hepatitis) [12]: 0
Hepatotoxicity (association with vascular disease) [13]: 1
Hepatotoxicity (steatosis) [14]: 0
Hepatotoxicity (malignant tumour) [15]: 0
Hepatotoxicity (benign tumour) [16]: 0
Hepatotoxicity (animal toxicity known) [17]: yes

N[C@@H]1C[C@H]1c1ccccc1.N[C@H]1C[C@@H]1c1ccccc1 [TRANYLCYPROMINE]
Hepatotoxicity (moderate) ([1]; Liver): 0%
Hepatotoxicity (acute) ([2]; Liver): 0%
Hepatotoxicity (successful reintroduction) [3]: yes
Hepatotoxicity (moderate) [5]: 0
Hepatotoxicity (acute) [6]: 2
Hepatotoxicity (cytolytic) ([7]; Liver): 2
Hepatotoxicity (choleostasis) ([8]; Liver): 2
Hepatotoxicity (severe hepatitis) ([9]; Liver): 0
Hepatotoxicity (chronic liver disease) [10]: 0
Hepatotoxicity (cirrhosis) [11]: 0
Hepatotoxicity (granulomatous hepatitis) ([12]; Liver): 0
Hepatotoxicity (association with vascular disease) [13]: 0
Hepatotoxicity (steatosis) [14]: 0
Hepatotoxicity (malignant tumour) [15]: 0
Hepatotoxicity (benign tumour) [16]: 0
Hepatotoxicity (animal toxicity known) [17]: yes

Source: ChEMBL document CHEMBL3137667, “[Drug-induced liver injury; fourteenth updated edition of the bibliographic database of liver injuries and related drugs]” (Gastroenterol Clin Biol, 2004)
